These results are taken from patent US20130059890A1, “ANTIVIRAL AGENTS” (SYDNEY WEST AREA HEALTH SERVICE, priority 2009, published 2013).

Molecules are shown by their SMILES. “Also recorded” adds a separate entry of the source.

This test has as its system HCV (JFH-1) infected Huh7 cells. The following applies: 24 hours; for effect on HCV replication (in words): HCV RNA by qPCR (FIG. 9; discussion). An excerpt: Huh7 cells were infected with the JFH-1 strain of hepatitis C virus (genotype 2a) as previously described in Wakita et al., (2005), “Production of infectious hepatitis C virus in tissue culture from a cloned viral genome”, Nat. Med., 11(7):791-796). Briefly, pJFH-1 plasmids encoding full length HCV genome (provided by T. Wakita, National Institute of Infectious Diseases, Japan) were linearized and HCV RNA was synthesized using T7 RiboMAX™ Express Large Scale RNA Production System (Promega). 10 μg of HCV RNA was added to 1.6×10^6 Huh7 cells suspended in 800 ul PBS buffer. A Bio-Rad Gene Pulser system was used to deliver a single pulse at 0.34 kV, 975 μF, using 4 mm electroporation cuvettes. Cells were cultured at 37° C. in a 5% CO2 atmosphere in Dulbecco's modified Eagle's medium (DMEM) supplemented with 10% fetal bovine serum for 10 days (Gibco).
HCV RNA was amplified from infected Huh7 cells using specific primers targeting the 5′ noncoding region under the following conditions: 10 min at 95° C.; 40 cycles of 94° C. for 15 s and 60° C. for 45 s. Samples were analysed in triplicate and relative expression of HCV RNA normalised to 18s.
JFH-1 infected Huh7 cells cultured in 6 well plates were treated with HU-210 (100 nM), either alone or with increasing concentrations of the antagonists NlDA-41020 or (S)-SLV-319 (1 nM, 10 nM, 100 nM and 1 μM). Untreated cells and cells treated with CB1 antagonist alone (100 nM) were used as controls. After 24 hours cells were harvested, total RNA extracted, and HCV RNA measured by qPCR. Three replicate experiments were performed for each set of conditions and mean values calculated.
On the technique in general: In qPCR the cycle at which signal appears reflects the starting amount.

On to `CN=C(NS(=O)(=O)c1ccc(Cl)cc1)N1C[C@H](c2ccccc2)C(c2ccc(Cl)cc2)=N1` [(S)-SLV-319, 3-(4-chlorophenyl)-N-[(4-chlorophenyl)sulfonyl]-4,5-dihydro-N′-methyl-4-phenyl-1H-pyrazole-1-carboximidamide], for which the “effect on HCV replication (in words)” value was “inhibit HCV replication in a dose-dependent manner; also recorded: inhibited”. Consider `CCCCCCC(C)(C)c1cc(O)c2c(c1)OC(C)(C)[C@@H]1CC=C(CO)C[C@@H]21` [HU-210], for which the “effect on HCV replication (in words)” value is given as “stimulated”. Besides, the “increase of HCV replication” value (HU-210 100 nM, HCV RNA by qPCR normalised to 18s (FIG. 7)) is on record as 40%.
